Results published in US6642249B2, “Immunomodulating compounds” (Active Biotech AB, priority 2001, dated 2003).

Each compound was assayed against T1, CD28-CD80 interactions (Homo sapiens, UniProt P33681) (assay: Time resolved fluorescence competition assay: CD28-CD80 interactions). Details: inhibition of CD28-mFc (5 nM) / CD80FabC215 (10 nM) interaction; representative results.
T1 sequence (P33681 35-242 limits assumed): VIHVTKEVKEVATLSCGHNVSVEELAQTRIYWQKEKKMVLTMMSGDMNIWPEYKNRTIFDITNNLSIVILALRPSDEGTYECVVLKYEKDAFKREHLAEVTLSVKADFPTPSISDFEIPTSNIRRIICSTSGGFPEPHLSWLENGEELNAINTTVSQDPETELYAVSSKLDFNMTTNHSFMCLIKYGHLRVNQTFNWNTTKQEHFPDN
Type: binding
Description: Time resolved fluorescence competition assay protocol: CD28-CD80 interactions.
50 mM Tris-HCl, 150 mM NaCl, 0.05% Tween 20, pH 7.8, containing 0.1% BSA (w/v), added prior to use.
The substances to be tested for inhibitory effects were serially diluted from stock concentrations of 20 mM (DMSO) in assay buffer to preparation concentrations of 200, 100, 50 and 25 μM. The final concentration in the wells was 100, 50, 25 and 12.5 μM, respectively. The maximum final DMSO concentration tolerated in the assay was 0.5%. Where appropriate, the dilution series was adjusted and extended to measure the IC50.
CTLA4-hIg(Fc) was diluted to working concentrations of 20 nM and 2 nM, resulting in final concentrations of 10 nM and 1 nM in the well. At these concentrations (10 nM and 1 nM) approximately 90% and 30% inhibition levels were observed.
Preparation of Reagent Mixture
To a tube containing 1.1 ml assay buffer, the following reagents were added:
900 μl of the above reagent mixture was transferred to a new tube. CD80FabC215 was added at a preparation concentration of 20 nM, (i.e. 4.3 μl from 0.4 mg/ml stock). The final concentration in the well was 10 nM.
To the remaining 200 μl reagent mixture C215Fab was added as control for non-specific binding (NSB). 0.5 μl from a 0.36 mg/ml stock gave a preparation concentration of 20 nM and a final concentration in the well of 10 nM.
To a black, half area, 96-well microtiter plate, the C215Fab containing reagent mixture was transferred to column 12, row E-H (4 wells), 10 μl/well with a single channel electronic pipette. 10 μl/well of the CD80FabC215 containing reagent mixture was transferred with a single channel electronic pipette to all other wells on the plate
B0: Assay buffer, 10 μl/well was pipetted to the CD80FabC215 containing wells in column 12, row A-D (4 wells).
NSB: Assay buffer, 10 μl/well was pipetted to the C215Fab containing wells in column 12, row E-H (4 wells).
CTLA4-hIg(Fc), 10 μl/well of 20 and 2 nM (final conc 10 and 1 nM) was pipetted in duplicate into well 11 E-F and 11 G-H.
Sample dilution series: 10 μl/well in duplicate to the remaining wells.
The plate was covered with a plastic lid and incubated in the dark: Initially for 1 h on a shaker platform at room temperature (RTS), stationary at +4° C. overnight, and finally 1 h RTS before reading.
The plate was measured on a Victor 1420 Multilabel Counter using the LANCE protocol (#2) measuring emission at dual wavelengths, from both APC (665 nm) and Europium (615 nm). First measurement: Excitation 340 nm, emission 665 nm, delay 50 μs, window time 200 μs. Second measurement: Excitation 340 nm, emission 615 nm, delay 50 μs, window time 200 μs.
The fluorescence signal ratio 1000* 665 nm/615 nm, from which the percentage inhibition was calculated, was determined. A logit b plot (Logit b=LN (% Bound/(100% −% Bound, plotted against Log conc) was performed from which IC50 was measured.
With `O=C(O)c1ccc(-n2nc3c4ccccc4[nH]cc-3c2=O)cc1Cl` [2-Chloro-4-(3-oxo-3,5-dihydro-pyrazolo[4,3-c]quinolin-2-yl)-benzoic Acid] the IC50 was 270 nM. In the case of `O=C(O)CNC(=O)c1ccc(-n2nc3c4ccccc4[nH]cc-3c2=O)cc1` [2-[4-(3-Oxo-3,5-dihydro-pyrazolo[4,3-c]quinolin-2-yl)-benzoylamino]-2-acetic Acid], the IC50 is reported as 3900 nM. In the case of `O=C(O)c1cccc(-n2nc3c4ccccc4[nH]cc-3c2=O)c1` [3-(3-Oxo-3,5-dihydro-pyrazolo[4,3-c]quinolin-2-yl)-benzoic Acid], the IC50 is reported as 880 nM. `O=C(O)c1ccc(-n2nc3c4ccccc4scc-3c2=O)cc1` [4-(3-Oxo-3H-thiochromeno[4,3-c]pyrazol-2-yl)benzoic Acid] was tested, and the IC50 was 13500 nM. Work on `O=C(O)c1ccc(-n2nc3c4ccccc4[nH]cc-3c2=O)cc1` [4-(3-oxo-3,5-dihydro-pyrazolo[4,3-c]quinolin-2-yl)-benzoic Acid] yielded an IC50 of 480 nM. Compound `O=C(O)CCC(=O)Nc1ccc(-n2nc3c4ccccc4[nH]cc-3c2=O)cc1` [N-[4-(3-Oxo-3,5-dihydro-pyrazolo[4,3-c]quinolin-2-yl)-phenyl]-succinamic Acid] has an IC50 of 600 nM. Compound `O=C(O)CCc1ccc(-n2nc3c4ccccc4[nH]cc-3c2=O)cc1` [[4-(3-Oxo-3,5-dihydro-pyrazolo[4,3-c]quinolin-2-yl)-phenyl]-propionic Acid] has an IC50 of 1600 nM.
